Several values for one entry are separate records, joined by “and”; a condition that tells them apart may be missing. Equal entries are not always repeated. Toxic doses and inconclusive results are not listed.
System: CD2F1 mice, L1210 leukemia ip, survival T/C
Assay: NCI In Vivo Anticancer Drug Screen. Data for tumor model L1210 Leukemia (intraperitoneal) in CD2F1 (CDF1) mice
Details: higher = longer survival
In short: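 Read-out first: treated-group measurement over vehicle-control measurement, expressed as a ratio. Animals bore a transplanted tumor line and were dosed with compound or vehicle.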

[1] = endpoint: mean survival time, dose: 100.0 mg/kg/injection, schedule: Q01DX001 (ip), vehicle: saline with Tween-80
[2] = endpoint: mean survival time, dose: 200.0 mg/kg/injection, schedule: Q01DX001 (ip), vehicle: saline with Tween-80
[3] = endpoint: mean survival time, dose: 400.0 mg/kg/injection, schedule: Q01DX001 (ip), vehicle: saline with Tween-80
[4] = endpoint: mean survival time, dose: 100.0 mg/kg/injection, schedule: Q04DX003 (ip), vehicle: saline with Tween-80
[5] = endpoint: mean survival time, dose: 200.0 mg/kg/injection, schedule: Q04DX003 (ip), vehicle: saline with Tween-80
[6] = endpoint: mean survival time, dose: 400.0 mg/kg/injection, schedule: Q04DX003 (ip), vehicle: saline with Tween-80
[7] = endpoint: mean survival time, dose: 75.0 mg/kg/injection, schedule: Q01DX001 (ip), vehicle: other
[8] = endpoint: mean survival time, dose: 150.0 mg/kg/injection, schedule: Q01DX001 (ip), vehicle: other

Which T/C (endpoint: mean survival time, dose: 0.78 mg/kg/injection, schedule: Q01DX005 (ip), vehicle: saline) does the source give for `O=CC(O)C(O)C(O)C(O)C(=O)O.[NH-]C1CCCCC1[NH-].[Pt+2]` (stereo not drawn) here?
The T/C was 156 % of control.

What about the T/C (endpoint: mean survival time, dose: 1.56 mg/kg/injection, schedule: Q01DX005 (ip), vehicle: saline) of the same compound?
The T/C was 203 % of control.

And the T/C (endpoint: mean survival time, dose: 1.56 mg/kg/injection, schedule: Q01DX009 (ip), vehicle: saline)?
The T/C was 160 % of control.

And the T/C (endpoint: mean survival time, dose: 3.12 mg/kg/injection, schedule: Q01DX005 (ip), vehicle: saline)?
Its T/C is 266 % of control.

And the T/C (endpoint: mean survival time, dose: 3.12 mg/kg/injection, schedule: Q04DX003 (ip), vehicle: saline)?
Its T/C is 150 % of control.

And the T/C (endpoint: mean survival time, dose: 3.13 mg/kg/injection, schedule: Q01DX009 (ip), vehicle: saline)?
Its T/C is 200 % of control.

And the T/C (endpoint: mean survival time, dose: 6.25 mg/kg/injection, schedule: Q01DX005 (ip), vehicle: saline)?
Its T/C is 300 % of control.

And the T/C (endpoint: mean survival time, dose: 6.25 mg/kg/injection, schedule: Q01DX009 (ip), vehicle: saline)?
Its T/C is 167 % of control.

And the T/C (endpoint: mean survival time, dose: 6.25 mg/kg/injection, schedule: Q04DX003 (ip), vehicle: saline)?
The T/C was 280 % of control.

And the T/C (endpoint: mean survival time, dose: 12.5 mg/kg/injection, schedule: Q01DX005 (ip), vehicle: saline)?
Its T/C is 103 % of control.

What about the T/C (endpoint: mean survival time, dose: 12.5 mg/kg/injection, schedule: Q04DX003 (ip), vehicle: saline) of the same compound?
Its T/C is 301 % of control.

And the T/C (endpoint: mean survival time, dose: 25.0 mg/kg/injection, schedule: Q04DX003 (ip), vehicle: saline)?
The T/C was 231 % of control and 259 % of control.

What about the T/C (endpoint: mean survival time, dose: 50.0 mg/kg/injection, schedule: Q04DX003 (ip), vehicle: saline) of the same compound?
Its T/C is 108 % of control.

What about the T/C (endpoint: median survival time, dose: 1.02 mg/kg/injection, schedule: Q01DX009 (ip), vehicle: saline) of the same compound?
Its T/C is 160 % of control and 170 % of control.

And the T/C (endpoint: median survival time, dose: 1.37 mg/kg/injection, schedule: Q01DX009 (ip), vehicle: saline)?
The T/C was 170 % of control and 180 % of control.

What about the T/C (endpoint: median survival time, dose: 1.56 mg/kg/injection, schedule: Q01DX009 (ip), vehicle: saline) of the same compound?
The T/C was 236 % of control.

What about the T/C (endpoint: median survival time, dose: 2.09 mg/kg/injection, schedule: Q01DX009 (ip), vehicle: saline) of the same compound?
Its T/C is 189 % of control and 714 % of control.

What about the T/C (endpoint: median survival time, dose: 3.12 mg/kg/injection, schedule: Q01DX009 (ip), vehicle: saline) of the same compound?
Its T/C is 188 % of control and 253 % of control and 261 % of control.

What about the T/C (endpoint: median survival time, dose: 6.25 mg/kg/injection, schedule: Q01DX009 (ip), vehicle: saline) of the same compound?
The T/C was 119 % of control.

What about the T/C (endpoint: median survival time, dose: 6.25 mg/kg/injection, schedule: Q04DX003 (ip), vehicle: saline) of the same compound?
Its T/C is 101 % of control.

And the T/C (endpoint: median survival time, dose: 12.5 mg/kg/injection, schedule: Q01DX009 (ip), vehicle: saline)?
The T/C was 90 % of control.

What about the T/C (endpoint: median survival time, dose: 12.5 mg/kg/injection, schedule: Q04DX003 (ip), vehicle: saline) of the same compound?
The T/C was 100 % of control.

What about the T/C (endpoint: median survival time, dose: 12.5 mg/kg/injection, schedule: Q04DX003 (iv), vehicle: saline) of the same compound?
The T/C was 123 % of control.

And the T/C (endpoint: median survival time, dose: 25.0 mg/kg/injection, schedule: Q04DX003 (ip), vehicle: saline)?
The T/C was 103 % of control.

What about the T/C (endpoint: median survival time, dose: 50.0 mg/kg/injection, schedule: Q04DX003 (iv), vehicle: saline) of the same compound?
Its T/C is 365 % of control.

What about the T/C (endpoint: median survival time, dose: 100.0 mg/kg/injection, schedule: Q04DX003 (ip), vehicle: saline) of the same compound?
The T/C was 113 % of control.

Which T/C [1] does the source give for `CC1(C)CCC2(C)CC(C(=O)O)C(=O)C=C2C1` (stereo not drawn) here?
Its T/C is 100 % of control.

What about the T/C [2] of the same compound?
Its T/C is 92 % of control.

What about the T/C [3] of the same compound?
The T/C was 96 % of control.

With `Cc1c2ccccc2c(CN2CC(O)CC2C(=O)O)c2ccccc12` (stereo not drawn) as the compound, how does the T/C [4] read?
The T/C was 94 % of control.

What about the T/C [5] of the same compound?
Its T/C is 93 % of control.

And the T/C [6]?
The T/C was 87 % of control.

How did the T/C [1] turn out when `CCC1C(C)CNC1C` (stereo not drawn) was run?
The T/C was 100 % of control.

What does the source list for `N#CC(C(N)=O)C1CC(=O)Oc2ccccc21` (stereo not drawn)?
T/C (endpoint: mean survival time, dose: 100.0 mg/kg/injection, schedule: Q04DX003 (ip), vehicle: Klucel (hydroxypropylcellulose) (HPC)): 91 % of control; T/C (endpoint: mean survival time, dose: 200.0 mg/kg/injection, schedule: Q04DX003 (ip), vehicle: Klucel (hydroxypropylcellulose) (HPC)): 112 % of control

How did the T/C (endpoint: mean survival time, dose: 62.5 mg/kg/injection, schedule: Q01DX009 (sc), vehicle: steriod suspending solution) turn out when `Clc1ccc(C(c2ccccc2Cl)C(Cl)Cl)cc1` (stereo not drawn) was run?
The T/C was 95 % of control and 106 % of control.

And the T/C (endpoint: mean survival time, dose: 125.0 mg/kg/injection, schedule: Q01DX009 (sc), vehicle: steriod suspending solution)?
Its T/C is 98 % of control and 102 % of control.

And the T/C (endpoint: mean survival time, dose: 250.0 mg/kg/injection, schedule: Q01DX009 (sc), vehicle: steriod suspending solution)?
Its T/C is 95 % of control and 105 % of control.

What about the T/C (endpoint: mean survival time, dose: 500.0 mg/kg/injection, schedule: Q01DX009 (sc), vehicle: steriod suspending solution) of the same compound?
Its T/C is 101 % of control and 106 % of control.

`CC1CC2C3(C1)CC(C(=O)OC3=O)C2(C)C` (stereo not drawn) was tested. Which T/C [7] did it give?
The T/C was 94 % of control.

And the T/C [8]?
The T/C was 92 % of control.

What about the T/C (endpoint: mean survival time, dose: 300.0 mg/kg/injection, schedule: Q01DX001 (ip), vehicle: other) of the same compound?
Its T/C is 92 % of control.

Which results are given for `Cc1ccc(S(=O)(=O)OC2CCC3(C)C(CCC4C3CCC3(C)C(C(C)CCCC(C)C)CCC43)C2)cc1` (stereo not drawn)?
T/C [4]: 92 % of control; T/C [5]: 90 % of control; T/C [6]: 89 % of control

For `CCOC(=O)c1ccc(NC/C(CN)=N/O)cc1`, which T/C [7] is on record?
Its T/C is 95 % of control.

What about the T/C [8] of the same compound?
The T/C was 95 % of control.

With `CC(C)CCNC(=O)NS(=O)(=O)c1ccc(N)cc1` as the compound, how does the T/C [4] read?
The T/C was 102 % of control.

And the T/C [5]?
Its T/C is 102 % of control.

What about the T/C [6] of the same compound?
Its T/C is 98 % of control.

How did the T/C [1] turn out when `CCOC(=O)C(CC)(C(=O)OCC)c1c(Cl)c(=O)oc2ccc(Cl)cc12` was run?
Its T/C is 100 % of control.

What about the T/C [2] of the same compound?
The T/C was 97 % of control.

What about the T/C [3] of the same compound?
Its T/C is 91 % of control.

What does the source list for `CN=Cc1ccc(OC)cc1`?
T/C (endpoint: mean survival time, dose: 25.0 mg/kg/injection, schedule: Q01DX009 (ip), vehicle: saline with Tween-80): 116 % of control; T/C (endpoint: mean survival time, dose: 50.0 mg/kg/injection, schedule: Q01DX009 (ip), vehicle: saline with Tween-80): 96 % of control; T/C (endpoint: mean survival time, dose: 100.0 mg/kg/injection, schedule: Q01DX009 (ip), vehicle: saline with Tween-80): 102 % of control; T/C [4]: 94 % of control

`N#CCCN=C1C=CC(=C(c2ccccc2)c2ccc(NCCC#N)cc2)C=C1` was tested. Which T/C (endpoint: mean survival time, dose: 100.0 mg/kg/injection, schedule: Q04DX002 (ip), vehicle: saline with Tween-80) did it give?
The T/C was 103 % of control.

And the T/C (endpoint: mean survival time, dose: 200.0 mg/kg/injection, schedule: Q04DX002 (ip), vehicle: saline with Tween-80)?
The T/C was 103 % of control.

And the T/C (endpoint: mean survival time, dose: 400.0 mg/kg/injection, schedule: Q04DX002 (ip), vehicle: saline with Tween-80)?
The T/C was 107 % of control.

What does the source list for `O=NN(CCSCCCCl)C(=O)NC1CCCCC1`?
T/C (endpoint: mean survival time, dose: 6.25 mg/kg/injection, schedule: Q01DX001 (ip), vehicle: distilled water + Tween-80): 96 % of control; T/C (endpoint: mean survival time, dose: 12.5 mg/kg/injection, schedule: Q01DX001 (ip), vehicle: distilled water + Tween-80): 96 % of control; T/C (endpoint: mean survival time, dose: 25.0 mg/kg/injection, schedule: Q01DX001 (ip), vehicle: distilled water + Tween-80): 101 % of control; T/C (endpoint: mean survival time, dose: 50.0 mg/kg/injection, schedule: Q01DX001 (ip), vehicle: distilled water + Tween-80): 102 % of control; T/C (endpoint: mean survival time, dose: 100.0 mg/kg/injection, schedule: Q01DX001 (ip), vehicle: distilled water + Tween-80): 101 % of control; T/C (endpoint: mean survival time, dose: 200.0 mg/kg/injection, schedule: Q01DX001 (ip), vehicle: distilled water + Tween-80): 102 % of control; T/C (endpoint: mean survival time, dose: 400.0 mg/kg/injection, schedule: Q01DX001 (ip), vehicle: distilled water + Tween-80): 118 % of control

What does the source list for `CC(C)N=C1N(C(C)C)C([O-])=N[N+]1(C)C`?
T/C (endpoint: mean survival time, dose: 100.0 mg/kg/injection, schedule: Q01DX009 (ip), vehicle: saline): 101 % of control; T/C (endpoint: mean survival time, dose: 100.0 mg/kg/injection, schedule: Q04DX003 (ip), vehicle: saline): 108 % of control; T/C (endpoint: mean survival time, dose: 200.0 mg/kg/injection, schedule: Q01DX009 (ip), vehicle: saline): 101 % of control; T/C (endpoint: mean survival time, dose: 200.0 mg/kg/injection, schedule: Q04DX003 (ip), vehicle: saline): 96 % of control; T/C (endpoint: mean survival time, dose: 400.0 mg/kg/injection, schedule: Q01DX009 (ip), vehicle: saline): 101 % of control; T/C (endpoint: mean survival time, dose: 400.0 mg/kg/injection, schedule: Q04DX003 (ip), vehicle: saline): 107 % of control
